Measured values as given in PubChem BioAssay AID1996.
In brackets after ≈: the same amount, converted by molar mass.

Settings: buffer; pH 7.4; 200.0 µM
With `O=S(=O)(Cc1ccccc1)NCCc1ccc(F)cc1` the solubility kinetic was 34.3 µg/mL (≈ 117 µM).
Work on `O=C(Nc1cc(S(=O)(=O)Nc2ccccc2Cl)ccc1O)c1ccc(F)cc1F` yielded a solubility kinetic of 3.3 µg/mL (≈ 7.52 µM).
With `CN1CCN(c2ccccc2NC(=O)c2ccccc2F)CC1` the solubility kinetic was over 47 µg/mL.
For `Cc1ccc(NC(=O)COC(=O)c2ccco2)cc1S(=O)(=O)N1CCOCC1`, the solubility kinetic was over 61.3 µg/mL.
Molecule `O=C(O/N=C/c1ccc2c(c1)OCO2)c1ccc([N+](=O)[O-])cc1` has a solubility kinetic of 0.9 µg/mL (≈ 2.86 µM).
In the case of `COc1ccccc1/C=N/OC(=O)c1ccc(F)cc1`, the solubility kinetic is reported as 0.7 µg/mL (≈ 2.56 µM).
Work on `O=C(NCc1cccs1)C1CC(=O)N(Cc2ccccc2)C1` (stereo not given) yielded a solubility kinetic of over 47.2 µg/mL.
For `CC(=O)Oc1ccc2c(=O)c(/C=N/c3cc(=O)[nH]c(=S)[nH]3)coc2c1`, the solubility kinetic was 30.6 µg/mL (≈ 85.6 µM).
`O=C(O)c1ccccc1C(=O)NC1Cc2ccccc2C1` showed a solubility kinetic of 42.1 µg/mL (≈ 150 µM).
Work on `CN(C(=O)COC(=O)c1cccc(F)c1)c1ccccc1` yielded a solubility kinetic of 32 µg/mL (≈ 111 µM).
`CC1(C)CC(=O)C=C(Nc2cccc(F)c2)C1` showed a solubility kinetic of over 35 µg/mL.
With `CCc1ccc(NC(=O)NCCCN2CCCC2=O)cc1` the solubility kinetic was over 43.4 µg/mL.
With `Cc1ccc(C)c(NC(=O)c2cc3ccccc3o2)c1` the solubility kinetic was 10.9 µg/mL (≈ 41.1 µM).
Molecule `O=C(CSc1ccc(C(F)(F)F)cc1[N+](=O)[O-])N1CCOCC1` has a solubility kinetic of 22.9 µg/mL (≈ 65.4 µM).
With `COc1cccc(CN2CCNCC2)c1OC` the solubility kinetic was 20.3 µg/mL (≈ 85.9 µM).
Work on `N/C(=N\O)c1cccc(CS(=O)(=O)c2ccccn2)c1` yielded a solubility kinetic of 37 µg/mL (≈ 127 µM).
`CCOc1cc(/C=N/NC(=O)C2CCCC2)ccc1O` showed a solubility kinetic of over 41.5 µg/mL.
In the case of `COC(=O)C1CCN(CC(=O)NC(=O)NC2CCCCC2)CC1`, the solubility kinetic is reported as over 48.8 µg/mL.
`CCOc1ccc(NC(=O)CN(C)S(=O)(=O)c2cnc[nH]2)cc1` gave a solubility kinetic of over 50.8 µg/mL.
`O=C(NCCCNC(=O)c1ccc(F)cc1)c1ccc(F)cc1` gave a solubility kinetic of 30.9 µg/mL (≈ 97.1 µM).
`COc1ccc(NC(=S)NC(=O)c2cccnc2)cc1` showed a solubility kinetic of 15.5 µg/mL (≈ 53.9 µM).
For `C=CCNc1nc(N)c([N+](=O)[O-])c(Nc2cccc(Cl)c2)n1`, the solubility kinetic was 0.1 µg/mL (≈ 0.312 µM).
`COC(=O)c1ccccc1NC(=O)c1ccc(F)cc1` showed a solubility kinetic of under 0.6 µg/mL.
For `CCCC1(c2ccccc2)NC(=O)NC1=O` (stereo not given), the solubility kinetic was over 32.7 µg/mL.
Work on `CCN(CC)CCSc1nc2ccc(OC)cc2[nH]1.Cl` yielded a solubility kinetic of over 52.8 µg/mL.
`Cc1ccc(CN(CCO)CCO)cc1` showed a solubility kinetic of 29.4 µg/mL (≈ 140 µM).
Molecule `CC(C)S(=O)(=O)c1csc(NC(=O)Nc2cccc([N+](=O)[O-])c2)c1Cl` has a solubility kinetic of under 0.3 µg/mL.
In the case of `CN(C(=O)COC(=O)Cn1cnc2ccccc21)C1CCCCC1`, the solubility kinetic is reported as 45 µg/mL (≈ 137 µM).
Work on `O=C(NCc1cccnc1)Nc1ccc(Cl)c(Cl)c1` yielded a solubility kinetic of over 44.4 µg/mL.
`CCCCN(C(=O)c1c(-c2ccccc2)noc1C)c1c(N)n(CCC)c(=O)[nH]c1=O` gave a solubility kinetic of over 63.8 µg/mL.
In the case of `COc1nc2c(c(-c3cc(Br)cs3)c1C#N)Cc1ccccc1-2`, the solubility kinetic is reported as under 0.4 µg/mL.
In the case of `O=C(CN1CCN(c2ccccn2)CC1)Nc1cc(F)ccc1F`, the solubility kinetic is reported as over 49.9 µg/mL.
With `O=Cc1c(C(=O)O)n(Cc2ccccc2Cl)c2ccccc12` the solubility kinetic was over 47.1 µg/mL.
Work on `CN(C)CCNC(C(=O)Nc1cc(Cl)cc(Cl)c1)c1ccccc1` (stereo not given) yielded a solubility kinetic of over 54.9 µg/mL.
`O=C(O)c1ccc(CNC(=O)c2ccc3c(c2)C(=O)N(Cc2cccnc2)C3=O)cc1` showed a solubility kinetic of over 62.3 µg/mL.
In the case of `CC1CN(C(=S)Nc2ccccc2)CC(C)O1` (stereo not given), the solubility kinetic is reported as 35.4 µg/mL (≈ 141 µM).
In the case of `CCN(CC)C(=O)Nc1ccc(Br)cc1`, the solubility kinetic is reported as over 40.7 µg/mL.
With `NC(=O)c1ccc(Oc2ccc(Cl)cc2)c([N+](=O)[O-])c1` the solubility kinetic was 2 µg/mL (≈ 6.83 µM).
`Cc1ccc(C)c(C(=O)COc2ncnc3ccccc23)c1` gave a solubility kinetic of 9.2 µg/mL (≈ 31.5 µM).
In the case of `NS(=O)(=O)c1ccc2c(c1)C(=NO)c1cc(S(N)(=O)=O)ccc1-2`, the solubility kinetic is reported as 4.6 µg/mL (≈ 13 µM).
Work on `COc1cccc(CNc2ccc(N3CCCCC3)cc2)c1OC` yielded a solubility kinetic of 39.5 µg/mL (≈ 121 µM).
Molecule `Cc1nc2cc(NC(=O)Nc3cccc(F)c3)ccc2n1C` has a solubility kinetic of 3.3 µg/mL (≈ 11.1 µM).
Work on `O=C(NCCC(=O)N1CCCCCCC1)c1ccc(Cl)cc1` yielded a solubility kinetic of over 48.4 µg/mL.
Work on `O=C(O)CC(Cc1ccc(Cl)cc1)C(=O)Nc1cc(Cl)ccc1Cl` (stereo not given) yielded a solubility kinetic of 42.1 µg/mL (≈ 109 µM).
Molecule `Cc1c(CCO)c(=O)n2c([nH]c3ccccc32)c1C#N` has a solubility kinetic of 19 µg/mL (≈ 71.1 µM).
`OC(COc1ccc(Cl)cc1Cl)Cn1ccnc1` (stereo not given) gave a solubility kinetic of 39.6 µg/mL (≈ 138 µM).
For `O=S(=O)(c1ccc(Br)c2ccccc12)N1CCOCC1`, the solubility kinetic was 17.4 µg/mL (≈ 48.8 µM).
Molecule `CC(C)CCC(C)NC(=O)c1ccc2nccnc2c1` (stereo not given) has a solubility kinetic of 34.6 µg/mL (≈ 128 µM).
With `COc1cccc(OCCNS(=O)(=O)c2cccc([N+](=O)[O-])c2)c1` the solubility kinetic was 46.6 µg/mL (≈ 132 µM).
`COC(=O)c1sccc1NC(=O)COc1ccc(F)cc1Cl` gave a solubility kinetic of under 0.7 µg/mL.
For `CS(=O)(=O)N1CCN=C1SCc1cccc(F)c1`, the solubility kinetic was 42.6 µg/mL (≈ 148 µM).
For `Cc1ccc(NC(=O)Nc2cnccn2)cc1C`, the solubility kinetic was 9.5 µg/mL (≈ 39.2 µM).
With `O=C(Nc1cccc(NC(=O)c2ccccc2)n1)c1ccccc1` the solubility kinetic was 16.8 µg/mL (≈ 52.9 µM).
`O=C(Nc1cccnc1Cl)c1noc2c1CCc1ccccc1-2` showed a solubility kinetic of under 0.2 µg/mL.
`Oc1ccc2ccccc2c1CN1CCOCC1` showed a solubility kinetic of over 36.5 µg/mL.
Work on `COCCCNC(=O)c1ccc(-c2nc3ccccc3nc2-c2ccccc2)cc1` yielded a solubility kinetic of 32.4 µg/mL (≈ 81.5 µM).
`O=C(NCc1ccccc1Cl)C1CC(=O)N(Cc2ccccc2)C1` (stereo not given) showed a solubility kinetic of over 51.4 µg/mL.
`CC1C(=O)Nc2ccccc2N1C(=O)c1c(F)cccc1F` (stereo not given) gave a solubility kinetic of over 45.3 µg/mL.
In the case of `O=C(COc1ccccc1)Nc1ccc2[nH]c(=O)[nH]c2c1`, the solubility kinetic is reported as 36.9 µg/mL (≈ 130 µM).
Work on `CC(CCc1ccccc1)NCC#N.Cl` (stereo not given) yielded a solubility kinetic of 31.1 µg/mL.
